# From patent publication EP0108606B1, “Steroid compounds” (STERWIN AG., priority 1982, dated 1984)
# Where two headings read alike, the source gives them in different places.
# Assays:
# [1] = Bioavailability Test: plasma levels after oral 60 mg capsules of different trilostane particle size; type: in vivo, volunteers; conditions: for AUC at 24 h: human, plasma, po, 120 mg, 120 mg trilostane (2 x 60 mg capsules) oral, empty stomach, eight volunteers, read-out: Trilostane AUCo^24
# Experimental: 60 mg capsules were prepared as described in Example 1 by wet granulation techniques using batches of trilostane comprising (i) particles having a mean equivalent sphere volume diameter of about 10 µm (at least about 95% of the particles having a particle size of less than about 50 pm), (ii) particles of mean equivalent sphere volume diameter of about 45 µm, and (iii) particles of mean equivalent sphere volume diameter greater than 100 pm.
# In a three part double blind cross-over study on eight volunteers, each volunteer received a dosage of 120 mg of trilostane (2 x 60 mg capsules) on an empty stomach with 50 ml of tap water. Blood samples (8 ml) were taken pre-medication and at 0.5, 1.0, 2.0, 3.0, 4.0, 5.0, 6.0, 8.0, 10.0 and 24.0 hours and assayed for plasma levels of trilostane and trilostane metabolite. Plasma concentrations were processed by a computer programme giving maximum concentration in plasma (Cmax) and time taken to reach this maximum (Tmax) by inspection. Values for the area under the curve of concentration against time over the time span 0 to t ( [formula] ―where t is time) were then calculated using the trapezoid rule and statistical analysis was carried out using the Students paired t-test.
# The following Table I sets out [formula] values (mg.ml^-1.h) for trilostane and 17-keto metabolite.
# [2] = In vitro dissolution or release testing of products with different trilostane particle sizes; type: physicochemical; conditions: products containing batches of trilostane of differing particle sizes
smiles,measurement,setting,value
"C[C@]12CC[C@H]3[C@@H](CC[C@@]45O[C@@H]4C(O)=C(C#N)C[C@]35C)[C@@H]1CC[C@@H]2O [Trilostane, 2a-cyano-4a,5a-epoxyandrostan-17a-ol-3-one]",ratio of Metabolite AUC to Trilostane AUCo^4,[1]; 10 µm material,3.1
same,ratio of Metabolite AUC to Trilostane AUCo^4,[1]; 45 µm material,4.5
same,ratio of Metabolite AUC to Trilostane AUCo^4,[1]; 100 µm material,6.5
same,plasma levels at 24 hours,"[1]; 24 hours after 120 mg oral, in most cases",could not be detected
same,AUC at 24 h,[1]; particle size 10 µm,1600 µg·h/mL
same,AUC at 24 h,[1]; particle size 45 µm,600 µg·h/mL
same,AUC at 24 h,[1]; particle size 100 µm,200 µg·h/mL
same,dissolution or release properties,[2],could not be differentiated
